# Laboratory results from patent US9457063B2, “Method for treatment of diabetic vascular leakage-induced disease using C-peptide” (KANGWON NATIONAL UNIVERSITY UNIVERSITY-INDUSTRY COOPERATION …, priority 2012, dated 2016).
# Where “and” joins values, the source holds several entries; their conditions need not be identical. Equal entries are not always repeated.
# Experiments:
# [1] = system: retinas of streptozotocin diabetic mice; experiment: Retinal vascular leakage in streptozotocin diabetic mice (FITC-dextran fluorescein angiography); type: in vivo; settings: for retinal microvascular leakage (extravasation of FITC-dextran) in diabetic mice: intravitreal injection, VEGF antibody 100 μg/ml, N-acetyl-cysteine 81.5 mg/ml, Trolox 125 μg/ml, 2 μl C-peptide, 24 hrs post-injection, n=6, p<0.01
# Method: Diabetic mice were generated by a single intraperitoneal injection of streptozotocin (150 mg/kg body weight) freshly prepared in 100 mM citrate buffer (pH 4.5). All mice were supplied with 10% sucrose overnight. Sufficient hyperglycemia was observed 2 days post-injection, as measured by the ACCU-CHEK® Active blood glucose monitor (Roche Diagnostics, Germany). One week after the streptozotocin injection, mice with non-fasting blood glucose levels greater than 16 mM, polyuria, and glucosuria were defined as diabetic and used for the experiments.
# The diabetic mice were intravitreally injected with 2 μl of C-peptide (3.7 μg/ml) in PBS into one eye, and an equal volume of PBS was injected into the contralateral eye (n=6 per group). Normal (non-diabetic) mice were also intravitreally injected with 2 μl of PBS into eyes (Normal; n=6 per group). C-peptide concentrations in the vitreous chamber were maintained within the physiological range (0.9 to 2.0 nM) for 12 hrs after intravitreal injection.
# After 24 hrs post injection, retina leakage was quantified using fluorescein angiography. In this regard, mice were injected with 1.25 mg of 500-kDa FITC-dextran (Sigma-Aldrich) into the left ventricle and the dye was allowed to circulate for 5 min. Eyes were enucleated and immediately fixed with 4% paraformaldehyde for 45 min. Retinas were dissected, cut in the Maltese cross-configuration, and flat-mounted onto slide glass. Retinas were observed using the confocal microscope. Retina leakage was quantitatively analyzed by determining the intensities of extravasated FITC-dextran from whole retina tissues (n=6 per group) using the FV-300 software.
# Diabetic mice were intravitreally injected with a monoclonal VEGF antibody (100 μg/ml), N-acetyl-cysteine (81.5 mg/ml), or Trolox (125 μg/ml) into one eye, and an equal volume of PBS was injected into the contralateral eye (n=6 per group). Twenty four hrs post-injection, retinal vascular leakage was quantified using fluorescein angiography. For the experiment, mice were injected with 1.25 mg of 500-kDa FITC-dextran (Sigma) into the left ventricle and the dye was allowed to circulate for 5 min. The eyes were enucleated and immediately fixed with 4% paraformaldehyde for 45 min. Retinas were dissected, cut in the Maltese cross-configuration, and flat-mounted onto slide glass before observation using confocal microscopy. Retinal vascular leakage was quantitatively analyzed by determining the intensities of extravasated FITC-dextran from whole retina tissues (n=6 per group) using confocal microscopy (FV-300, Olympus, Tokyo, Japan), and applying the intensity data to the FV-300 software.
# HUVECs [2] = experiment: VEGF-induced intracellular ROS generation in HUVECs; type: cell-based, human; settings: for VEGF-induced intracellular ROS generation: HUVECs pre-incubated 30 min with 1 mM NAC, 0.5 mM Trolox or 5 μM BAPTA-AM, 10 ng/ml VEGF 10 min
# Method: HUVECs were isolated from the human umbilical cord vein according to a well known process, and cells from passages 3 to 6 were used in the following experiments. Cells were inoculated into M199 culture media (supplemented with 20% FBS, 3 ng/ml bFGF, 5 U/ml heparin, 100 U/ml penicillin, and 100 μg/ml streptomycin) in 2% gelatin-coated coverslips, dishes, or plates, and grown at 37° C. in a humidified 5% CO2 incubator.
# For experiments, cells were incubated for 6 h in low-serum medium (M199 supplemented as above, but with only 1% FBS), and treated for a suitable time with 10 ng/ml VEGF in the presence or absence of various concentrations of C-peptide.
# In detail, HUVECs inoculated into coverslips were treated with VEGF and C-peptide, and incubated with 10 μM 2′,7′-dichlorodihydrofluorescein diacetate (Molecular Probes, Eugene, Oreg.) in phenol red-free media for the last 10 min. The coverslips were mounted on a perfusion chamber, and labeled cells were rapidly scanned by confocal microscopy. The level of intracellular ROS was determined by comparing the fluorescence intensities of treated cells with those of control cells, and expressing this as a fold difference.
# HUVECs [3] = experiment: Intracellular Ca2+ levels in HUVECs (Fluo-4 AM); type: cell-based, human; settings: HUVECs labeled with 1 μM Fluo-4 AM; for effect on VEGF-induced changes in intracellular Ca2+: n=3
# Method: To monitor intracellular Ca^2+ levels, cells inoculated into coverslips were incubated with 1 μM Fluo-4 AM for 30 min. The coverslips were mounted on perfusion chambers and scanned every 10 sec by confocal microscopy (FV-300). Serial images from the scan were processed to analyze changes in intracellular Ca^2+ levels at the single-cell level. Data were expressed as the relative fluorescence intensity (RFI).
# HUVECs [4] = experiment: VEGF-induced stress fiber formation in HUVECs (rhodamine-phalloidin); type: cell-based, human; settings: HUVECs 1 hr; 10 ng/ml VEGF with 0.5 nM C-peptide, 1 mM NAC or 0.5 mM Trolox; n=3
# Method: HUVECs were grown on gelatin-coated round coverslips in 12-well culture plates, […], alone or in combination, or with 10 ng/ml VEGF in the presence of an ROS scavenger, that is, 1 mM NAC or 0.5 mM Trolox for 1 hr at 37° C. The cells were rapidly rinsed with PBS and fixed with 3.7% formaldehyde in PBS for 30 min. Then, the cells were permeabilized with 0.2% Triton X-100 in PBS for 30 min, and stained with rhodamine-palloidin (Molecular Probes) in PBS for 1 h. The resulting stained cells were mounted on a glass slide using a mounting solution, followed by visualizing actin filaments by confocal microscopy.
# HUVECs [5] = experiment: VEGF-induced disassembly of VE-cadherin adherens junctions in HUVECs; type: cell-based, human; settings: for VEGF-induced disassembly of VE-cadherin: HUVECs 90 min, 10 ng/ml VEGF with 0.5 nM C-peptide, 1 mM NAC or 0.5 mM Trolox, n=3
# Method: Confluent cell layers (HUVECs) in 6-well plates were incubated with C-peptide or an ROS scavenger for 30 min, and then treated with VEGF for 90 min at 37° C. The treated cells were rinsed with PBS, and fixed with 3.7% formaldehyde in PBS for 30 min. The cells were permeabilized with 0.2% Triton X-100 in PBS for 30 min, and stained overnight at 4° C. with a monoclonal VE-cadherin antibody (Santa Cruz Biotechnology, Santa Cruz, Calif.) in PBS. Thereafter, the cells were probed with goat anti-mouse FITC (fluorescein isothiocyanate; Sigma, St. Louis, Mo.), followed by visualizing VE-cadherin by confocal microscopy.
# [6] = system: microvessels of the diabetic mouse retina; experiment: Disassembly of adherens junctions (VE-cadherin) in retina of diabetic mice; type: in vivo; settings: intravitreal 2 μl C-peptide, n=3
# Method: Diabetic mice were intravitreally injected with 2 μl C-peptide into one eye (Diabetic+C-Pep) and an equal volume of PBS into the contralateral eye (Diabetic, n=3). Normal (non-diabetic) mice also were intravitreally injected with 2 μl PBS into eyes (Normal, n=3).
# VE-cadherin was stained in the retina and visualized using confocal microscopy as described below.
# Microvessels were stained for VE-cadherin in retinal whole mounts. In detail, isolated retinas were fixed in 100% ethanol for 30 min, delipidated in 100% ice-cold acetone for 10 min, and permeabilized with 0.3% Triton X-100 for 1 hr. The retinas were incubated with an anti-VE-cadherin antibody (Enzo Life Sciences, Farmingdale, N.Y., USA) at 4° C. for 24 hrs, and probed with goat anti-mouse FITC (Sigma) at 4° C. for 24 hrs, followed by visualizing VE-cadherin by confocal microscopy (FV-300, Olympus).
# [7] = Serum C-peptide levels during subcutaneous mini-osmotic pump delivery; type: in vivo; settings: diabetic mice, 35 pmol/min/kg, n=7
# Method: After implantation of a mini-osmotic pump for delivering C-peptide, blood c-peptide levels were measured. One group of diabetic mice (n=7) was subcutaneously implanted with ALZET® mini-osmotic pump 2004 (DURECT, Cupertino, Calif.) containing C-peptide in PBS with a delivery rate of 35 pmol/min/kg. The other diabetic (n=7) and control groups (n=7) underwent sham operations. During the continuous subcutaneous C-peptide perfusion, serum C-peptide levels were measured using a C-peptide Enzyme Immunoassay Kit (RayBiotech, Norcross, Ga.).
# [8] = system: skin of streptozotocin diabetic mice; experiment: Miles vascular permeability assay in skin of streptozotocin diabetic mice; type: in vivo
# Method: A Miles vascular permeability assay was performed in diabetic mice as follows. After 2 to 3 days post-shaving, mice were anesthetized and intravenously injected with 150 μl of a 1% Evans blue solution. After 15 min, 15 μl of a VEGF (10 ng) solution containing 0, 7.5, or 15 ng of C-peptide was injected intradermally into the shaved skin of the mice (n=12 per group). PBS was injected for the control (n=12). An area of skin that included the blue spot resulting from leakage of the dye was dissected, and the Evans blue dye was eluted from the dissected skin by incubation with formamide at 56° C. for 2 days. The amount of dye was quantitated by spectrophotometry at 620 nm.
# [9] = C-peptide levels in the vitreous fluid after intravitreal injection; type: in vivo, mice; settings: mouse, 7.5 ng, after intravitreal injection of 2 μl C-peptide (3.7 μg/ml), maintained for 12 hrs, physiological range, read-out: C-peptide concentrations in the vitreous chamber
# Method: After intravitreal injection, C-peptide levels in the vitreous fluid were monitored with time. In this regard, C-peptide was intravitreally injected at a dose of 7.5 ng, after which C-peptide in the vitreous chamber was quantitated using a human C-peptide ELISA kit (Millipore Co. Billerica, Mass.) (n=4).
# FIG. 6A = experiment: FIG. 6A
# Excerpt: Table printed on a drawing sheet, FIG. 6A
# Footnotes: Data are means ± S.D. / ***p<0.001 vs. control mice.
# FIG. 6D is a graph in which serum C-peptide levels are plotted against time after intravitreal injection; and
# First reader's note: Each column is a mouse group; the cells give mean ± S.D. of the serum C-peptide level.
SMILES,"extravasation of FITC-dextran (vascular leakage) in the retinas of diabetic mice ([1]; intravitreal 2 μl C-peptide (3.7 μg/ml), 24 hrs post injection, vs PBS contralateral eye, n=6, p<0.05)",retinal microvascular leakage (extravasation of FITC-dextran) in diabetic mice [1],"concentration at which complete prevention of VEGF-induced ROS generation was observed (HUVECs [2]; HUVECs pre-treated 30 min, 10 ng/ml VEGF)","VEGF-induced generation of intracellular ROS (HUVECs [2]; HUVECs pre-treated with various concentrations of C-peptide 30 min, 10 ng/ml VEGF, dose-dependent)",effect on VEGF-induced changes in intracellular Ca2+ (HUVECs [3]),effect of substance alone on intracellular Ca2+ (HUVECs [3]; no VEGF),VEGF-induced stress fiber formation (HUVECs [4]),VEGF-induced disassembly of VE-cadherin (HUVECs [5]),"VEGF-induced decrease in the fluorescence intensity of the adherens junctions (HUVECs [5]; HUVECs, VE-cadherin histograms (RFI), FIG. 4B)",diabetes-induced disassembly of adherens junctions in retinal microvessels [6],serum C-peptide level [7],"VEGF-induced vascular permeability (Evans blue leakage) in skin ([8]; intradermal VEGF (10 ng) with 7.5 or 15 ng C-peptide, dose-dependent, n=12, p<0.01)","vascular permeability with C-peptide alone ([8]; intradermal, no VEGF)",level at time molar [9],Serum C-peptide (nM) (4 weeks after C-peptide delivery) (FIG. 6A),Serum C-peptide (nM) (at 1 week of diabetes induction) (FIG. 6A),VEGF-induced intracellular ROS generation (HUVECs [2])
CC(C)C[C@H](NC(=O)[C@H](C)NC(=O)[C@H](CC(C)C)NC(=O)[C@@H]1CCCN1C(=O)[C@H](CCC(N)=O)NC(=O)[C@H](CC(C)C)NC(=O)[C@H](CO)NC(=O)CNC(=O)[C@H](C)NC(=O)CNC(=O)[C@@H]1CCCN1C(=O)CNC(=O)CNC(=O)CNC(=O)[C@H](CC(C)C)NC(=O)[C@H](CCC(=O)O)NC(=O)[C@@H](NC(=O)[C@H](CCC(N)=O)NC(=O)CNC(=O)[C@@H](NC(=O)[C@H](CCC(N)=O)NC(=O)[C@H](CC(C)C)NC(=O)[C@H](CC(=O)O)NC(=O)[C@H](CCC(=O)O)NC(=O)[C@H](C)NC(=O)[C@@H](N)CCC(=O)O)C(C)C)C(C)C)C(=O)N[C@@H](CCC(=O)O)C(=O)NCC(=O)N[C@@H](CO)C(=O)N[C@@H](CC(C)C)C(=O)N[C@@H](CCC(N)=O)C(=O)O [C-peptide],blocked,blocked,0.5 nM,inhibited,had no effect,did not increase,sufficiently suppressed,inhibited,recovered,inhibited,elevated to a normal value,suppressed,did not cause a significant change,0.9 to 2 nM,1.50 ± 0.89 nM and 2.40 ± 0.93 nM,1.44 ± 0.53 nM,–
"CC(=O)OCOC(=O)CN(CC(=O)OCOC(C)=O)c1ccccc1OCCOc1ccccc1N(CC(=O)OCOC(C)=O)CC(=O)OCOC(C)=O [BAPTA-AM, 1,2-bis(2-aminophenoxy)ethane-N,N,N-′,N′-tetraacetic acid tetrakis(acetoxymethyl ester), reference compound]",–,–,–,–,blocked,–,–,–,–,–,–,–,–,–,–,–,blocked
"Cc1c(C)c2c(c(C)c1O)CCC(C)(C(=O)O)O2 (centres unmarked) [Trolox, reference compound]",–,prevented,–,–,–,–,inhibited,prevented,–,–,–,–,–,–,–,–,abolished
"CC(=O)N[C@@H](CS)C(=O)O [NAC, N-acetyl-L-cysteine, reference compound]",–,prevented,–,–,–,–,inhibited,prevented,–,–,–,–,–,–,–,–,abolished
